# Data as given in US8524696B2, “Water-soluble compositions of bioactive lipophilic compounds” (priority 1999, dated 2013).
# Assays:
# [1] = Storage stability of water-soluble compositions and their aqueous solutions; assay type: physicochemical; settings: in water or saline; refrigerated or frozen as stated
# [2] = test system: spontaneously hypertensive rats (SHR); assay: Ischemia/reperfusion, middle cerebral artery occlusion model (MCAO), TTC staining; assay type: in vivo, rat; settings: CoQ10 treatment postischemically
# [3] = test system: Human teratocarcinoma NT2; assay: Protection against hypoxia, cell viability by trypan blue exclusion; assay type: cell-based; settings: 10 mg/ml as PTS formulation, 3 days; 17.5 hours anaerobic, glucose-free
# Procedure: The flasks were sealed in an anaerobic chamber containing Gas Pak Plus gas generator envelopes and were incubated in the anaerobic conditions at 37° C. for 17.5 hours in glucose-free medium. Following the hypoxic treatment the cells were placed again in the complete medium (with and without CoQ10 or vitamin E) and were analysed either immediately (time 0) or were cultured for the additional 24 hr under the normoxic conditions. Cell viability was measured by trypan blue exclusion assay. […]
# [4] = test system: red blood cells (RBC) isolated from Balb/c mice; assay: In vitro haemolysis of red blood cells (RBC); assay type: cell-based, mouse; settings: 0.3% Triton X-100, 1 h at 37° C., taken as 100% haemolysis (Table 17 reference column)
# [5] = Systemic release of vitamin E following administration of PTS (plasma alpha-tocopherol by HPLC); assay type: in vivo, Sprague Dawley male rats; settings: for Concentration of α-tocopherol in rat blood plasma: PTS 50 mg/kg
# Procedure: PTS, dissolved in water (50 mg/ml), was administered to Sprague Dawley male rats (300-350 g) either orally or intravenously at a dose of 50 mg/kg body weight. Heparinized blood samples were collected at 0, 3, 8 and 24 hr following PTS administration. Blood plasma samples were obtained and analyzed for the content of alpha-tocopherol using an HPLC method using a Supercosil DB column and a mobile phase of ethanol:methanol (80:20 v/v) at a flow rate of 1 ml/min. Beckman System Karat software was used for data quantification.
compound,measurement,setting,value
CC1=C(/C=C/C(C)=C/C=C/C(C)=C/C=C/C=C(C)/C=C/C=C(C)/C=C/C2=C(C)C(=O)[C@@H](O)CC2(C)C)C(C)(C)C[C@H](O)C1=O [Astaxanthin],stability of aqueous solutions,[1],remained stable for several months
"COC1=C(OC)C(=O)C(C/C=C(\C)CC/C=C(\C)CC/C=C(\C)CC/C=C(\C)CC/C=C(\C)CC/C=C(\C)CC/C=C(\C)CC/C=C(\C)CC/C=C(\C)CCC=C(C)C)=C(C)C1=O [CoQ10, Coenzyme Q10]",protective effects against ischemia-induced tissue damage,[2],clearly evident
same,percentage of death during the 24 hr recovery period from hypoxia,[3],reduced by half
"Cc1c(C)c2c(c(C)c1O)CC[C@@](C)(CCC[C@H](C)CCC[C@H](C)CCCC(C)C)O2 [Vitamin E, α-(+)-tocopherol]",percentage of death during the 24 hr recovery period from hypoxia,[3],reduced by half
Triton X-100,Percentage of lysed Cells,[4],100.0%
polyoxyethanyl-α-tocopheryl sebacate [PTS],Concentration of α-tocopherol in rat blood plasma,"[5]; Intravenous administration, 3 hours",18.48 ± 2.40 (n = 3) μg/ml
same,Concentration of α-tocopherol in rat blood plasma,"[5]; Intravenous administration, 8 hours",11.19 ± 3.11 (n = 3) μg/ml
same,Concentration of α-tocopherol in rat blood plasma,"[5]; Intravenous administration, 24 hours",10.59 ± 1.48 (n = 3) μg/ml
same,Concentration of α-tocopherol in rat blood plasma,"[5]; Oral administration, 3 hours",8.65 ± 1.40 (n = 3) μg/ml
same,Concentration of α-tocopherol in rat blood plasma,"[5]; Oral administration, 8 hours",9.33 ± 2.10 (n = 3) μg/ml
same,Concentration of α-tocopherol in rat blood plasma,"[5]; Oral administration, 24 hours",8.31 ± 0.60 (n = 3) μg/ml
same,plasma content of α-tocopherol after PTS (systemic conversion to vitamin E),"[5]; oral or intravenous PTS, rat",Elevated
